Entries after “also recorded” stand apart in the source; their conditions may differ. Read-outs that look alike come from different tables or passages of the source.
Tests used:
RPMI 8226 = assay: Inhibition of proliferation of RPMI 8226 cells; format: cell-based, human; details: RPMI cells in vitro
Source text: The next set of experiments was designed to assess compounds that have low levels of brain penetration for the ability of the test compounds to inhibit cellular proliferation. An exemplary in vitro assay is to screen for the ability of the test compounds to inhibit proliferation of the B-cell neoplastic cell line RPMI 8226 (a plasmacytoma derived from a multiple myeloma patient (Matsuoka, et al., 1967, Proc. Soc. Exp. Biol. Med. 125: 1246-1250). However other cell line can be used such as, U266 (established from an IgE-secreting myeloma patient (Nilsson, et al., 1970, Clin. Exp. Immunol., 7: 477-489) and ARH77 (an EBV transformed plasma cell leukemia (Burk, et al., 1978, Cancer Res. 38: 2508-2513).
FIG. 1 is a graph depicting the effects on the test compounds on RPMI cell viability.

MPR1-MDCK = MPR1-MDCK permeability, potential to cross the blood-brain barrier; format: in vitro ADME; details: for % Recovery A-B / Papp A-B: A-B direction; for % Recovery B-A / Papp B-A: B-A direction; for Efflux: efflux ratio; for Brain Penetration Classification: from A-B Papp and efflux ratio
Source text: (§1) A criterion for selecting an agent for proceeding to clinical trials is whether the compound crosses the blood-brain barrier. […] Fluphenazine (ICI-01175) is used as a control compound that has the potential to cross the blood-brain barrier. Table 1 summarizes the results of the test compounds for their potential to cross the blood-brain barrier.

[1] = as above; format: in vitro ADME; details: dog, MDCK
Source text: as §1

human small airway = assay: Human precision-cut lung slices (PCLS), small airway contraction; details: 10^−8 to 10^−5 M, dose-dependent
Procedure: Human precision-cut lung slices (PCLS) permit evaluation of pharmacological responses of novel drug candidates applied directly to their target tissue.
Human precision-cut lung slices (PCLS, 250 μm thick) containing a small airway were contracted to carbachol, histamine and passively sensitization to induce airway closure±pre-incubation with ICI-735 (10 μM; 2 hours); FIG. 13. For example, human lung slices containing a small airway were incubated overnight with either negative control IgG (4 μg/mL) or positive control IgE (4 μg/mL). The slices were tested as follows: 1) IgG+anti-IgE; 2) IgE+anti-IgE; 3) IgE+Dexamethasone (1 μM)+anti-IgE; and 4) IgE+ICI-735 (10 μM) +anti-IgE. Dexamethasone and ICI-735 were pre-incubated 2 hours prior to anti-IgE; anti-IgE is used to crosslink antibodies and induce mast cell degranulation, which is believed to release histamine and cause airway contract. […]
Human lung tissue contains multiple cell types, including mast cells, that localize in the region of airway smooth muscle, and that increase in number in individuals with asthma. Cross-linking of Fcε;R1 receptors on surfaces of mast cells leads to release of granules that contain smooth muscle contractile agonists, including histamine and leukotrienes.
To test C-027 as a blocker of histamine-induced bronchoconstriction, lung slices were incubated for 2 hours with C-027, and small airway contraction was evaluated after addition of increasing concentrations of histamine.

Row | SMILES | % Recovery A-B (MPR1-MDCK) [%] | Papp A-B (MPR1-MDCK) [×10⁻⁶ cm/s] | % Recovery B-A (MPR1-MDCK) [%] | Papp B-A (MPR1-MDCK) [×10⁻⁶ cm/s] | Efflux (MPR1-MDCK) | Papp A→B ([1]; A-B direction) [×10⁻⁶ cm/s] | recovery ([1]; A-B direction, read-out: % Recovery A-B) [%] | Papp B→A ([1]; B-A direction) [×10⁻⁶ cm/s] | recovery ([1]; B-A direction, read-out: % Recovery B-A) [%] | efflux ratio ([1]; efflux ratio) | ability to inhibit proliferation of RPMI cells (RPMI 8226) | Brain Penetration Classification (MPR1-MDCK) | ability to inhibit proliferation of RPMI cells (RPMI 8226; listed as ICI-847) | ability to inhibit proliferation of RPMI cells (RPMI 8226; listed as ICI-1260) | bronchoconstriction (human small airway)
1 | NCC(N)C(=O)NCCN1CCN(CCCN2c3ccccc3Sc3ccc(C(F)(F)F)cc32)CC1 (stereo not drawn) [ICI-761] | – | – | – | – | – | – | – | – | – | – | able to inhibit | – | – | – | –
2 | CN(C)S(=O)(=O)c1ccc2c(c1)N(CCCN1CCN(CCN)CC1)c1ccccc1S2 [ICI-00715] | 85 | 0.08 | 77 | 12.3 | 154 | – | – | – | – | – | able to inhibit | Low (A-B Papp > 3.0 and Efflux Ratio > 10: Low) | – | – | –
3 | NCC(=O)NCCCN1CCC(CCCN2c3ccccc3Sc3ccc(C(F)(F)F)cc32)CC1 [ICI-01260] | 55 | 0.32 | 47 | 26.4 | 82 | – | – | – | – | – | – | Low (A-B Papp > 3.0 and Efflux Ratio > 10: Low) | – | able to inhibit; also recorded: active | –
4 | CNCC(=O)NCCCN1CCC(CCCN2c3ccccc3Sc3ccc(C(F)(F)F)cc32)CC1 [ICI-01259] | 29 | <0.29 | 39 | 12.5 | >43 | – | – | – | – | – | able to inhibit | Low (A-B Papp > 3.0 and Efflux Ratio > 10: Low) | – | – | –
5 | C[N+](C)(C)CCOC(N)=O [Carbachol, reference compound] | – | – | – | – | – | – | – | – | – | – | – | – | – | – | up to 70%
6 | CC(=O)NCCN1CCC(CCCN2c3ccccc3Sc3ccc(C(F)(F)F)cc32)CC1 [ICI-00850] | 11 | 0.94 | 9 | 4.94 | 5.3 | – | – | – | – | – | – | Low (A-B Papp > 3.0 and Efflux Ratio > 10: Low) | – | – | –
7 | NCC(=O)NCCN1CCC(CCCN2c3ccccc3Sc3ccc(C(F)(F)F)cc32)CC1 [ICI-00848] | 22 | 0.24 | 21 | 15.5 | 64 | – | – | – | – | – | able to inhibit | Low (A-B Papp > 3.0 and Efflux Ratio > 10: Low) | – | – | –

More lines, main results first:

Row | % Recovery A-B (MPR1-MDCK) [%] | Papp A-B (MPR1-MDCK) [×10⁻⁶ cm/s] | % Recovery B-A (MPR1-MDCK) [%] | Papp B-A (MPR1-MDCK) [×10⁻⁶ cm/s] | Efflux (MPR1-MDCK) | Papp A→B ([1]; A-B direction) [×10⁻⁶ cm/s] | recovery ([1]; A-B direction, read-out: % Recovery A-B) [%] | Papp B→A ([1]; B-A direction) [×10⁻⁶ cm/s] | recovery ([1]; B-A direction, read-out: % Recovery B-A) [%] | efflux ratio ([1]; efflux ratio) | SMILES | ability to inhibit proliferation of RPMI cells (RPMI 8226) | Brain Penetration Classification (MPR1-MDCK) | ability to inhibit proliferation of RPMI cells (RPMI 8226; listed as ICI-847) | ability to inhibit proliferation of RPMI cells (RPMI 8226; listed as ICI-1260) | bronchoconstriction (human small airway)
8 | 9 | 0.56 | 31 | 9.56 | 17 | – | – | – | – | – | NCCCN1CCC(CCCN2c3ccccc3Sc3ccc(C(F)(F)F)cc32)CC1 [ICI-00847] | – | Low (A-B Papp > 3.0 and Efflux Ratio > 10: Low) | able to inhibit; also recorded: active | – | –
9 | 61 | 0.13 | 22 | 15.7 | 119 | – | – | – | – | – | NCC(=O)NCCCN1CCN(CCCN2c3ccccc3Sc3ccc(C(F)(F)F)cc32)CC1 [ICI-00822] | – | Low (A-B Papp > 3.0 and Efflux Ratio > 10: Low) | – | – | –
10 | 59 | 0.21 | 41 | 24.9 | 116 | – | – | – | – | – | CNCC(=O)NCCN1CCN(CCCN2c3ccccc3Sc3ccc(C(F)(F)F)cc32)CC1 [ICI-00758] | – | Low (A-B Papp > 3.0 and Efflux Ratio > 10: Low) | – | – | –
11 | – | – | – | – | – | 8.7 | 24 | 9.63 | 43 | 1.1 | OCCN1CCN(CCCN2c3ccccc3Sc3ccc(C(F)(F)F)cc32)CC1 [ICI-01175, Fluphenazine, reference compound] | – | High (A-B Papp > 3.0 and Efflux Ratio < 3.0: High) | – | – | –
12 | 3 | <0.36 | 1 | <0.49 | – | – | – | – | – | – | NCCN1CCC(CCCN2c3ccccc3Sc3ccc(C(F)(F)F)cc32)CC1 [ICI-00846] | – | Low (A-B Papp > 3.0 and Efflux Ratio > 10: Low) | – | – | –
